Biological target: T1, human M4 muscarinic acetylcholine receptor (Homo sapiens, UniProt P08173)
T1 construct: expressed in transfected cells; host or cells: CHO-K1
T1 sequence (P08173 1-479): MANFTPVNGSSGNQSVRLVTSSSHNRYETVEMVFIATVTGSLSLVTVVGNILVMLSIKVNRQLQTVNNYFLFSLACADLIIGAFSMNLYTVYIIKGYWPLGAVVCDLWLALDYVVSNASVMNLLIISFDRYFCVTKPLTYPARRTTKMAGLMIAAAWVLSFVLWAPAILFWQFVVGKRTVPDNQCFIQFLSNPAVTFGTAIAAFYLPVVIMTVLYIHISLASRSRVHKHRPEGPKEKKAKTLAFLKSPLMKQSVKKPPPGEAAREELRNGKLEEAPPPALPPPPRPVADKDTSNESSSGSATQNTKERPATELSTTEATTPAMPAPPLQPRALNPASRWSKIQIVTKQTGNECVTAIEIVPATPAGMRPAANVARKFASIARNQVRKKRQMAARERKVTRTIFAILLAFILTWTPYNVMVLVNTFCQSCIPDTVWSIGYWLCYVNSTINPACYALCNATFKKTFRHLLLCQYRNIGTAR
Assay: human FLIPR-based M4 PAM assay (Ca2+ mobilization, CHO-K1 cells with human M4 receptor and Gαqi5)
Type: cell-based
Details: acetylcholine at 20% of maximum response, read-out: M4 PAM IP
Procedure, shortened: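 Calcium-mobilization (FLIPR) readout in dye-loaded CHO-K1 cells co-expressing human M4 receptor and Gαqi5. Potentiation measured against acetylcholine at a concentration giving 20% of maximal response, with an optional 70% addition; the reported value is the curve inflection point from a 4-parameter logistic fit.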

Going from `Cc1c(N2CC[C@@H](Oc3ccc4c(c3)COCC4)[C@@H](F)C2)nc2c(c1C)C(=O)NC2` [Example 194A, 2-((3S,4R)-3-fluoro-4-(isochroman-7-yloxy)piperidin-1-yl)-3,4-dimethyl-6,7-dihydro-5H-pyrrolo[3,4-b]pyridin-5-one] to `CCc1cc2c(nc1N1CC[C@@H](Oc3ccc4c(c3)COC4)[C@@H](F)C1)CNC2=O` [Example 214, 2-((3S,4R)-4-((1,3-dihydro-2-benzofuran-5-yl)oxy)-3-fluoropiperidin-1-yl)-3-ethyl-6,7-dihydro-5H-pyrrolo[3,4-b]pyridin-5-one], the EC50 rises from 20 nM to 93 nM (4.7-fold). The first is the more potent here.

First: COCc1ccc(OC2CCN(c3nc4c(cc3C)C(=O)NC4)CC2)cc1 [Example 195, 2-(4-(4-(methoxymethyl)phen-oxy)piperidin-1-yl)-3-methyl-6,7-dihydro-5H-pyrrolo[3,4-b]pyridin-5-one]
Second: COCCOCc1ccc(OC2CCN(c3nc4c(cc3C)C(=O)NC4)CC2)cc1 [Example 205, 2-(4-(4-((2-methoxyethoxy)methyl)phenoxy)piperidin-1-yl)-3-methyl-6,7-dihydro-5H-pyrrolo[3,4-b]pyridin-5-one]
The EC50 of the first is 3.5-fold lower: 68 nM for the first, 238 nM for the second.

First: Cc1cc2c(nc1N1CC[C@@H](Oc3ccc(F)cc3)[C@@H](F)C1)CNC2=O [Example 196, 2-((3S,4R)-3-fluoro-4-(4-fluorophenoxy)piperidin-1-yl)-3-methyl-6,7-dihydro-5H-pyrrolo[3,4-b]pyridin-5-one]
Second: Cc1cc2c(nc1N1CCC(Oc3ccc4ncnn4c3)CC1)CNC2=O [Example 197A, 2-(4-([1,2,4]triazolo[1,5-a]pyridin-6-yloxy)piperidin-1-yl)-3-methyl-6,7-dihydro-5H-pyrrolo[3,4-b]pyridin-5-one]
The EC50 of the first is 13-fold lower: 22 nM for the first, 285 nM for the second. The first is the more potent here.

Going from `Cc1cc2c(nc1N1CCC(Oc3cnc4[nH]nc(C)c4c3)CC1)CNC2=O` [Example 197, 3-methyl-2-(4-((3-methyl-1H-pyrazolo[3,4-b]pyridin-5-yl)oxy)piperidin-1-yl)-6,7-dihydro-5H-pyrrolo[3,4-b]pyridin-5-one] to `Cc1cc2c(nc1N1CCC(Oc3cnc4[nH]ncc4c3)CC1)CNC2=O` [Example 206, 2-(4-((1H-pyrazolo[3,4-b]pyridin-5-yl)oxy)piperidin-1-pyrazolo[3,4-b]yl)-3-methyl-6,7-dihydro-5H-pyrrolo[3,4-b]pyridin-5-one], the EC50 falls from 6070 nM to 589 nM (10-fold). The second is the more potent here.

Going from `Cc1cc2c(nc1N1CCC(Oc3ccc4c(c3)OCC4)CC1)CNC2=O` [Example 198, 2-(4-((2,3-dihydrobenzofuran-6-yl)oxy)piperidin-1-yl)-3-methyl-6,7-dihydro-5H-pyrrolo[3,4-b]pyridin-5-one] to `CCc1cc2c(nc1N1CCC(Oc3ccc4c(c3)OCC4)CC1)CNC2=O` [Example 198A, 2-(4-((2,3-dihydrobenzofuran-6-yl)oxy)piperidin-1-yl)-3-ethyl-6,7-dihydro-5H-pyrrolo[3,4-b]pyridin-5-one], the EC50 rises from 18 nM to 110 nM (6.1-fold). The first is the more potent here.

`Cc1cc2c(nc1N1CCC(Oc3ccc4c(c3)CO[C@@H]4C)CC1)CNC2=O` [Example 199A, (R)-3-methyl-2-(4-((1-methyl-1,3-dihydro-2-benzofuran-5-yl)oxy)piperidin-1-yl)-6,7-dihydro-5H-pyrrolo[3,4-b]pyridin-5-one] and `Cc1cc2c(nc1N1CCC(Oc3ccc4c(c3)CO[C@H]4C)CC1)CNC2=O` [Example 199B, (S)-3-methyl-2-(4-((1-methyl-1,3-dihydro-2-benzofuran-5-yl)oxy)piperidin-1-yl)-6,7-dihydro-5H-pyrrolo[3,4-b]pyridin-5-one] are within 1.5-fold of each other in EC50: 60 nM for the first, 72 nM for the second.

First: CCc1cc2c(nc1N1CCC(Oc3ccc4c(c3)COCC4)CC1)CNC2=O [Example 200, 3-ethyl-2-(4-(isochroman-7-yloxy)piperidin-1-yl)-6,7-dihydro-5H-pyrrolo[3,4-b]pyridin-5-one]
Second: CCc1cc2c(nc1N1CCC(Oc3ccc4c(c3)CCOC4)CC1)CNC2=O [Example 200A, 3-ethyl-2-(4-(isochroman-6-yloxy)piperidin-1-yl)-6,7-dihydro-5H-pyrrolo[3,4-b]pyridin-5-one]
The EC50 of the first is 1.7-fold higher: 96 nM for the first, 58 nM for the second.

First: CCc1cc2c(nc1N1CCC(Oc3cccnc3)CC1)CNC2=O [Example 201, 3-ethyl-2-(4-(pyridin-3-yloxy)piperidin-1-yl)-6,7-dihydro-5H-pyrrolo[3,4-b]pyridin-5-one]
Second: CCc1cc2c(nc1N1CCC(Oc3ccccc3)CC1)CNC2=O [Example 202, 3-ethyl-2-(4-phenoxypiperidin-1-yl)-6,7-dihydro-5H-pyrrolo[3,4-b]pyridin-5-one]
The EC50 of the first is 1.6-fold higher: 230 nM for the first, 148 nM for the second. The second is the more potent here.

Compared with `Cc1cc2c(nc1N1CCC(Oc3cnc4c(c3)CCO4)CC1)CNC2=O` [Example 201A, 2-(4-((2,3-dihydrofuro[2,3-b]pyridin-5-yl)oxy)piperidin-1-yl)-3-methyl-6,7-dihydro-5H-pyrrolo[3,4-b]pyridin-5-one], `Cc1cc2c(nc1N1CCC(Oc3ccc4c(c3)CCOC4)CC1)CNC2=O` [Example 207, 2-(4-(isochroman-6-yloxy)piperidin-1-yl)-3-methyl-6,7-dihydro-5H-pyrrolo[3,4-b]pyridin-5-one] is 2.3-fold lower in EC50: 68 nM for the first, 30 nM for the second. The second is the more potent here.

First: Cc1cc2c(nc1N1CCC(Oc3ccc4nn(C)cc4c3)CC1)CNC2=O [Example 202A, 3-methyl-2-(4-((2-methyl-2H-indazol-5-yl)oxy)piperidin-1-yl)-6,7-dihydro-5H-pyrrolo[3,4-b]pyridin-5-one]
Second: Cc1cc2c(nc1N1CCC(Oc3ccc4nc(C)n(C)c4c3)CC1)CNC2=O [Example 210, 2-(4-((1,2-dimethyl-1H-benzo[d]imidazol-6-yl)oxy)piperidin-1-yl)-3-methyl-6,7-dihydro-5H-pyrrolo[3,4-b]pyridin-5-one]
The EC50 of the first is 27-fold lower: 96 nM for the first, 2580 nM for the second.

First: COCc1ccc(OC2CCN(c3nc4c(cc3C)C(=O)NC4)CC2)cn1 [Example 203, 2-(4-((6-(methoxymethyl)pyridin-3-yl)oxy)piperidin-1-yl)-3-methyl-6,7-dihydro-5H-pyrrolo[3,4-b]pyridin-5-one]
Second: COCCOCc1ccc(OC2CCN(c3nc4c(cc3C)C(=O)NC4)CC2)cn1 [Example 204, 2-(4-((6-((2-methoxyethoxy)methyl)pyridin-3-yl)oxy)piperidin-1-yl)-3-methyl-6,7-dihydro-5H-pyrrolo[3,4-b]pyridin-5-one]
The EC50 of the first is 2.1-fold lower: 531 nM for the first, 1110 nM for the second. The first is the more potent here.

Compared with `Cc1cc2c(nc1N1CCC(OCc3ccccn3)CC1)CNC2=O` [Example 205A, 3-methyl-2-(4-(pyridin-2-ylmethoxy)piperidin-1-yl)-6,7-dihydro-5H-pyrrolo[3,4-b]pyridin-5-one], `Cc1cc2c(nc1N1CCC(Oc3cnn(C)c3)CC1)CNC2=O` [Example 206A, 3-methyl-2-(4-((1-methyl-1H-pyrazol-4-yl)oxy)piperidin-1-yl)-6,7-dihydro-5H-pyrrolo[3,4-b]pyridin-5-one] is 22-fold lower in EC50: 5630 nM for the first, 259 nM for the second.

Compared with `Cc1cc2c(nc1N1CCC(Oc3ccc4c(c3)OC(F)(F)O4)CC1)CNC2=O` [Example 208, 2-(4-((2,2-difluorobenzo[d][1,3]dioxol-5-yl)oxy)piperidin-1-yl)-3-methyl-6,7-dihydro-5H-pyrrolo[3,4-b]pyridin-5-one], `Cc1cc2c(nc1N1CCC(Oc3ccc4c(c3)CS(=O)(=O)C4)CC1)CNC2=O` [Example 208A, 2-(4-((2,2-dioxido-1,3-dihydrobenzo[c]thio-phen-5-yl)oxy)piperidin-1-yl)-3-methyl-6,7-dihydro-5H-pyrrolo[3,4-b]pyridin-5-one] is 2.7-fold lower in EC50: 329 nM for the first, 123 nM for the second. The second is the more potent here.

Compared with `Cc1cc2c(nc1N1CCC(Oc3ccc4c(c3)nc(C)n4C)CC1)CNC2=O` [Example 209, 2-(4-((1,2-dimethyl-1H-benzo[d]imidazol-5-yl)oxy)piperidin-1-yl)-3-methyl-6,7-dihydro-5H-pyrrolo[3,4-b]pyridin-5-one], `COC(=O)Cn1ncc2cc(OC3CCN(c4nc5c(cc4C)C(=O)NC5)CC3)ccc21` [Example 211, methyl 2-(5-((1-(3-methyl-5-oxo-6,7-dihydro-5H-pyrrolo[3,4-b]pyridin-2-yl)piperidin-4-yl)oxy)-1H-indazol-1-yl)acetate] is 12-fold lower in EC50: 2650 nM for the first, 216 nM for the second. The second is the more potent here.

Going from `COC(=O)c1c(C)c(N2CCC(Oc3ccc4c(c3)COC4)CC2)nc2c1C(=O)NC2` [Example 212, methyl 2-(4-((1,3-dihydro-2-benzofuran-5-yl)oxy)piperidin-1-yl)-3-methyl-5-oxo-6,7-dihydro-5H-pyrrolo[3,4-b]pyridine-4-carboxylate] to `CCc1cc2c(nc1N1CCC(Oc3ccc4c(c3)COC4)CC1)CNC2=O` [Example 213, 2-(4-((1,3-dihydro-2-benzofuran-5-yl)oxy)piperidin-1-yl)-3-ethyl-6,7-dihydro-5H-pyrrolo[3,4-b]pyridin-5-one], the EC50 falls from 1830 nM to 61 nM (30-fold).

`CCc1cc2c(nc1N1CCC(Oc3cnc4c(c3)COC4)CC1)CNC2=O` [Example 212A, 2-(4-((5,7-dihydrofuro[3,4-b]pyridin-3-yl)oxy)piperidin-1-yl)-3-ethyl-6,7-dihydro-5H-pyrrolo[3,4-b]pyridin-5-one] and `CCc1cc2c(nc1N1CC[C@@H](Oc3cnc4c(c3)COC4)[C@H](F)C1)CNC2=O` [Example 213A, 2-((3R,4R)-4-((5,7-dihydrofuro[3,4-b]pyridin-3-yl)oxy)-3-fluoropiperidin-1-yl)-3-ethyl-6,7-dihydro-5H-pyrrolo[3,4-b]pyridin-5-one] are within 1.5-fold of each other in EC50: 116 nM for the first, 126 nM for the second.

From patent US10329289B2, “6,7-dihydro-5H-pyrrolo[3,4-B]pyridin-5-one allosteric modulators of the M4 muscarinic acetylcholine receptor” (Merck Sharp & Dohme Corp., priority 2015, dated 2019)
